Series [1] deals with Enterococcus faecalis. Kind of series: Antibacterial activity against Enterococcus faecalis ATCC 47077 assessed as growth inhibition after 20 to 24 hrs. In kind it is functional.
The subject of series [2] is Escherichia coli. Kind of series: Antibacterial activity against Escherichia coli ATCC 700927 assessed as growth inhibition after 20 to 24 hrs. In kind it is functional.
Series [3] deals with Streptococcus mutans. As to the kind of experiment: Antibacterial activity against Streptococcus mutans ATCC 700610 assessed as growth inhibition after 20 to 24 hrs. In kind it is functional.
For series [4], the system named is Staphylococcus aureus. Kind of series: Antibacterial activity against Staphylococcus aureus 8325-4 assessed as growth inhibition after 20 to 24 hrs. In kind it is functional.
Series [5] relates to Limosilactobacillus reuteri. As to the kind of experiment: Antibacterial activity against Lactobacillus reuteri ATCC 23272 assessed as growth inhibition after 20 to 24 hrs. Format: functional.
Series [6] concerns Lacticaseibacillus casei. As to the kind of experiment: Antibacterial activity against Lactobacillus casei ATCC 334 assessed as growth inhibition after 20 to 24 hrs. Format: functional.
Series [7] concerns Bifidobacterium longum. As to the kind of experiment: Antibacterial activity against Bifidobacterium longum ATCC BAA-999 assessed as growth inhibition after 20 to 24 hrs. In kind it is functional.
Series [8] relates to Bacteroides thetaiotaomicron. As to the kind of experiment: Antibacterial activity against Bacteroides thetaiotaomicron ATCC 29148 assessed as growth inhibition after 20 to 24 hrs. In kind it is functional.
Series [9] relates to Bacteroides fragilis. Kind of series: Antibacterial activity against Bacteroides fragilis ATCC 25285 assessed as growth inhibition after 20 to 24 hrs. Format: functional. The note with it: NCTC 9343.
Series [10] deals with Clostridium perfringens. Kind of series: Antibacterial activity against Clostridium perfringens ATCC 13124 assessed as growth inhibition after 20 to 24 hrs. In kind it is functional.
In series [11] the test system is Clostridioides difficile. Kind of series: Antibacterial activity against Clostridium difficile CD196 assessed as growth inhibition after 20 to 24 hrs. Format: functional.
Series [12] can be described thus: Cytotoxicity against human HepG2 cells assessed as concentration required to decrease cell viability incubated for 24 hrs followed by compound washout measured after 18 hrs by resazurin dye-based assay. The note with it: read-out: Activity. A general note: The colour change of resazurin is a common sign of viable cells or microbes.
The test system of series [13] is FaDu. Kind of series: Cytotoxicity against human FADU cells assessed as concentration required to decrease cell viability incubated for 24 hrs followed by compound washout measured after 18 hrs by resazurin dye-based assay.

In brackets after ≈: the same amount, converted by molar mass. Where only a bound is given, the exact number is not on record here.

As a reminder, the MIC is the lowest concentration that inhibits growth of the organism.

In the case of `Cc1cc(C(=O)N/N=C/c2cccc3ccccc23)[nH]n1`, the minimal inhibitory concentration (MIC) in series [1], in [2], in series [3], in [4], in [5] and in series [6] was more than 50 µg/mL each time. Also, the minimum inhibitory concentration (MIC) in series [7], in [8], in series [9], in series [10] and in series [11] was more than 50 µg/mL in each case.

Take `COc1ccc2ccccc2c1/C=N/N(C)C(=O)c1ccc(C)cc1`: the MIC in series [1], in [2], in [3], in [4], in series [5] and in series [6] was more than 50 µg/mL in each case. Besides, the MIC in series [7], in series [8], in [9], in [10] and in series [11] was more than 50 µg/mL throughout.

As for `O=C(N/N=C/c1c(O)ccc2ccccc12)c1cc2ccccc2cc1O`, the MIC in series [11] stood at 12.5 µg/mL (≈ 35.1 µM).

Regarding `Oc1ccc2ccccc2c1/C=N/Nc1ccccc1`, in series [11], the minimal inhibitory concentration (MIC) is more than 50 µg/mL.

On to `Cc1cc(C(=O)N/N=C/c2c(O)ccc3ccccc23)c2cc(Br)ccc2n1`, for which the MIC in series [1], in [2], in series [3], in series [4], in [5] and in series [6] was more than 50 µg/mL throughout. The minimum inhibitory concentration (MIC) in series [7] is more than 50 µg/mL; in [8], more than 50 µg/mL; in series [9] it was more than 50 µg/mL; in series [10], 25 µg/mL (≈ 57.6 µM); in series [11], more than 50 µg/mL.

For `O=C(N/N=C/c1c(O)ccc2ccccc12)c1cccc([N+](=O)[O-])c1`, in series [11], the MIC was more than 50 µg/mL.

Regarding `COc1cccc(/C=N/NC(=O)c2cc(C)nc3ccc(Br)cc23)c1O`, the MIC in series [1], in series [2], in series [3], in series [4], in series [5] and in series [6] was more than 50 µg/mL each time. Further, the minimal inhibitory concentration (MIC) is more than 50 µg/mL in [7]; more than 50 µg/mL in series [8]; more than 50 µg/mL in series [9]; 6.25 µg/mL (≈ 15.1 µM) in [10]; 6.25 µg/mL (≈ 15.1 µM) in [11].

As for `O=C(N/N=C/c1c(O)ccc2ccccc12)c1ccc(Cl)cc1`, the MIC in series [1], in series [2], in [3], in series [4], in series [5] and in series [6] was more than 50 µg/mL in each case. For the same compound, the minimal inhibitory concentration (MIC) in series [7] is more than 50 µg/mL; in series [8] it was 12.5 µg/mL (≈ 38.5 µM); in series [9], 12.5 µg/mL (≈ 38.5 µM); in series [10], not above 0.78 µg/mL; in series [11], 6.25 µg/mL (≈ 19.2 µM).

As to `COc1cccc(/C=N/NC(=O)c2cc(C)nc3ccc(Br)cc23)c1`, the MIC in [1], in [2], in series [3], in series [4], in [5] and in series [6] was more than 50 µg/mL in each case. For the same compound, the minimum inhibitory concentration (MIC) in series [7], in series [8], in series [9], in series [10] and in series [11] was more than 50 µg/mL in each case.

Turning to `COc1ccc2ccccc2c1/C=N/NC(=O)c1ccc(C)cc1`, the MIC in [1], in series [2], in [3], in series [4], in series [5] and in series [6] was more than 50 µg/mL in each case. Further, the minimal inhibitory concentration (MIC) in series [7], in series [8], in [9], in series [10] and in series [11] was more than 50 µg/mL in each case.

With `Clc1ccc(COC(Cn2ccnc2)c2ccc(Cl)cc2Cl)c(Cl)c1` (configuration not stated) [MICONAZOLE], the MCC at 24 h in series [12] was 50 µg/mL. Further, in [13], the Activity was 50 µg/mL.

For the compound `O=C(N/N=C/c1c(OCc2cccc(Br)c2)ccc2ccccc12)c1ccccc1`, the MIC in series [11] is more than 50 µg/mL.

Take `O=C(CO)N/N=C/c1cccc2ccccc12`: the MIC in [11] is more than 50 µg/mL.

In the case of `CC(=O)N/N=C/c1ccccc1`, the MIC in series [11] is more than 50 µg/mL.

As to `O=C(N/N=C/c1c(O)ccc2ccccc12)c1ccc([N+](=O)[O-])cc1`, in series [11], the minimum inhibitory concentration (MIC) is more than 50 µg/mL.

For the compound `O=C(NNC(=O)c1ccc(-c2ccccc2)cc1)c1ccc(-c2ccccc2)cc1`, the MIC in series [11] is more than 50 µg/mL.

In the case of `Oc1c(Cl)c(Cl)c(Cl)c(Cl)c1Cl` [PENTACHLOROPHENOL], the MIC in series [1] was more than 50 µg/mL; in series [2], more than 50 µg/mL; in series [3], 25 µg/mL (≈ 93.9 µM); in series [4], less than 0.78 µg/mL; in series [5], 50 µg/mL (≈ 188 µM); in series [6] it was 50 µg/mL (≈ 188 µM). Moreover, the minimal inhibitory concentration (MIC) in series [7] amounted to 12.5 µg/mL (≈ 46.9 µM); in [8], 6.25 µg/mL (≈ 23.5 µM); in series [9], 6.25 µg/mL (≈ 23.5 µM); in series [10], 6.25 µg/mL (≈ 23.5 µM); in series [11], 50 µg/mL (≈ 188 µM).

As for `O/N=C/c1c(O)ccc2ccccc12`, the MIC in [11] is more than 50 µg/mL.

In the case of `COc1cccc(/C=N/NC(=O)c2ccc(C)cc2)c1O`, the minimum inhibitory concentration (MIC) in series [1] is more than 50 µg/mL; in series [2], more than 50 µg/mL; in series [3], 1.56 µg/mL (≈ 5.49 µM); in series [4] it was more than 50 µg/mL; in [5], more than 50 µg/mL; in series [6] it was more than 50 µg/mL. Besides, the MIC was more than 50 µg/mL in [7]; more than 50 µg/mL in series [8]; more than 50 µg/mL in [9]; 6.25 µg/mL (≈ 22 µM) in series [10]; 12.5 µg/mL (≈ 44 µM) in series [11].

Turning to `O=C(N/N=C/c1c(O)ccc2ccccc12)c1ccccc1`, the minimum inhibitory concentration (MIC) in [11] was found to be 6.25 µg/mL (≈ 21.5 µM).

For `Cc1cccc(/C=N/NC(=O)c2ccc(-c3ccccc3)cc2)c1`, in [11], the minimum inhibitory concentration (MIC) was more than 50 µg/mL.

As to `O=[N+]([O-])c1ccc(O)c([N+](=O)[O-])c1` [2,4-DINITROPHENOL], the MIC in series [1] is more than 50 µg/mL; in series [2] it was more than 50 µg/mL; in series [3] it was more than 50 µg/mL; in series [4], 25 µg/mL (≈ 136 µM); in series [5] it was more than 50 µg/mL; in [6], more than 50 µg/mL. The MIC in [7] was 25 µg/mL (≈ 136 µM); in series [8], 25 µg/mL (≈ 136 µM); in series [9], 12.5 µg/mL (≈ 67.9 µM); in series [10], more than 50 µg/mL; in series [11] it was 50 µg/mL (≈ 272 µM).

Regarding `O=C(N/N=C/c1c(O)ccc2ccccc12)c1cc([N+](=O)[O-])cc([N+](=O)[O-])c1`, the minimal inhibitory concentration (MIC) in [11] is more than 50 µg/mL.

As to `NC(=O)N/N=C/c1c(O)ccc2ccccc12`, the MIC in series [11] is more than 50 µg/mL.

On to `Cc1cc(C(=O)N/N=C/c2ccc([N+](=O)[O-])o2)[nH]n1`, for which the minimal inhibitory concentration (MIC) in series [1] was 12.5 µg/mL (≈ 47.5 µM); in series [2] it was 12.5 µg/mL (≈ 47.5 µM); in [3], 1.56 µg/mL (≈ 5.93 µM); in series [4] it was 1.56 µg/mL (≈ 5.93 µM); in series [5], 12.5 µg/mL (≈ 47.5 µM); in series [6], 6.25 µg/mL (≈ 23.7 µM). The minimum inhibitory concentration (MIC) was not above 0.78 µg/mL in [7]; not above 3.13 µg/mL in series [8]; not above 3.13 µg/mL in [9]; not above 12.5 µg/mL in [10]; 0.78 µg/mL (≈ 2.96 µM) in [11].

With `Cc1ccc(C(=O)N/N=C/c2cccc3ccccc23)cc1`, the minimal inhibitory concentration (MIC) in [1], in series [2], in series [3], in series [4], in series [5] and in series [6] was more than 50 µg/mL throughout. In addition, the MIC in series [7], in series [8], in [9], in [10] and in series [11] was more than 50 µg/mL each time.

In the case of `COc1cccc(/C=N/NC(=O)c2cc(C)n[nH]2)c1O`, the minimal inhibitory concentration (MIC) in series [1], in series [2], in [3], in [4], in series [5] and in series [6] was more than 50 µg/mL each time. Also, the minimum inhibitory concentration (MIC) in [7], in [8], in series [9], in series [10] and in series [11] was more than 50 µg/mL throughout.

Turning to `Cc1ccc(C(=O)N(C)/N=C/c2c(O)ccc3ccccc23)cc1`, the MIC in [1], in [2], in [3], in [4], in series [5] and in [6] was more than 50 µg/mL throughout. Also, the minimum inhibitory concentration (MIC) in [7], in series [8], in series [9], in series [10] and in series [11] was more than 50 µg/mL in each case.

For `O=C(N/N=C/c1c(O)ccc2ccccc12)c1cccc(Br)c1`, the MIC in [11] is 6.25 µg/mL (≈ 16.9 µM).

For `Cc1ccc(C(=O)N/N=C/c2ccc(O)c3ccccc23)cc1`, the minimal inhibitory concentration (MIC) in [1], in series [2], in series [3], in series [4], in series [5] and in series [6] was more than 50 µg/mL in each case. Moreover, the MIC in series [7], in series [8], in series [9], in [10] and in [11] was more than 50 µg/mL each time.

As for `O=C(NCc1ccccc1)c1ccc(-c2ccccc2)cc1`, the MIC in [11] is more than 50 µg/mL.
